Laboratory results from patent US20070065385A1, “Cold production method for pearly lustre preparations containing alcohols” (Clariant International, Ltd., priority 2005, published 2007).

Legend:
[1] = Degree of hydrolysis of stearoxytrimethylsilane to stearyl alcohol in ethanol/water at varying pH, by GC analysis; format: physicochemical; conditions: for % Hydrolysis of Stearoxytrimethylsilane to Stearyl Alcohol: 25° C., 5 wt% in 90 wt% ethanol/5 wt% D.I. water
From the text: The pearlescent effect of the present invention appears to be produced by the interaction of the siloxane compound, trimethylsilylalkylsilsesquioxane in the alcoholic hydrogel. It is believed that the trimethylsilylalkylsilsesquioxanes, such as stearoxytrimethylsilane, which is initially a liquid in anhydrous form, after dispersion in the alcoholic hydrogel, undergoes a degree of hydrolysis which results in the formation of finely dispersed crystals of pure stearyl alcohol in the alcoholic hydrogel. This process continues until the pearlescent appearance, or the desired degree of opacity is achieved. The degree of pearlescence or the density of the opacity can be controlled by controlling the amount of the siloxane and other components. The pH of the mixture influences the speed of the hydrolysis reaction. Preferably, the pH of the mixture of the alcoholic hydrogel and the trimethylsilylalkylsilsesquioxane is from 3 to 6.
The degree of hydrolysis of stearoxytrimethylsilane was determined in an ethanol/water mixture at varying pH levels ranging from 4.4 to 9.1. A mixture comprising 5 weight percent anhydrous stearoxytrimethylsilane (Available from Clariant Corp., as SILCARE 1 M71), 90 weight percent ethanol and 5 weight percent de-ionized water (D.I.) was subjected to various pH levels and the degree of hydrolysis to stearyl alcohol was determined by GC analysis.

[2] = cited from earlier work

Q: With `CCCCCCCCCCCCCCCCCCO[Si](C)(C)C` [Stearoxytrimethylsilane, stearoxytrimethylsilane] as the compound, how does the speed of hydrolysis ([1]; below a pH of 6) read?
A: Its speed of hydrolysis is “quickly hydrolyses”.

Q: What about the “% Hydrolysis of Stearoxytrimethylsilane to Stearyl Alcohol” value (“% Hydrolysis of Stearoxytrimethylsilane” for short) ([1]; pH (initial) 4.4, 2 Days) of the same compound?
A: Its value is >99%.

Q: What about the “% Hydrolysis of Stearoxytrimethylsilane” value ([1]; pH (initial) 4.4, 14 Days) of the same compound?
A: The value was >99%.

Q: And the “% Hydrolysis of Stearoxytrimethylsilane” value ([1]; pH (initial) 4.4, 15 minutes (initial))?
A: Its value is >99%.

Q: And the “% Hydrolysis of Stearoxytrimethylsilane” value ([1]; pH (initial) 5.3, 2 Days)?
A: The value was >99%.

Q: What about the “% Hydrolysis of Stearoxytrimethylsilane” value ([1]; pH (initial) 5.3, 14 Days) of the same compound?
A: The value was >99%.

Q: And the “% Hydrolysis of Stearoxytrimethylsilane” value ([1]; pH (initial) 5.3, 15 minutes (initial))?
A: Its value is >99%.

Q: What about the “% Hydrolysis of Stearoxytrimethylsilane” value ([1]; pH (initial) 5.5, 2 Days) of the same compound?
A: The value was 97%.

Q: What about the “% Hydrolysis of Stearoxytrimethylsilane” value ([1]; pH (initial) 5.5, 14 Days) of the same compound?
A: Its value is >99%.

Q: And the “% Hydrolysis of Stearoxytrimethylsilane” value ([1]; pH (initial) 5.5, 15 minutes (initial))?
A: Its value is 55%.

Q: And the “% Hydrolysis of Stearoxytrimethylsilane” value ([1]; pH (initial) 6.2, 2 Days)?
A: The value was 36%.

Q: And the “% Hydrolysis of Stearoxytrimethylsilane” value ([1]; pH (initial) 6.2, 14 Days)?
A: The value was 95%.

Q: What about the “% Hydrolysis of Stearoxytrimethylsilane” value ([1]; pH (initial) 6.2, 15 minutes (initial)) of the same compound?
A: The value was 6%.

Q: And the “% Hydrolysis of Stearoxytrimethylsilane” value ([1]; pH (initial) 8.1, 2 Days)?
A: The value was 10%.

Q: What about the “% Hydrolysis of Stearoxytrimethylsilane” value ([1]; pH (initial) 8.1, 14 Days) of the same compound?
A: The value was 48%.

Q: And the “% Hydrolysis of Stearoxytrimethylsilane” value ([1]; pH (initial) 8.1, 15 minutes (initial))?
A: Its value is 2%.

Q: What about the “% Hydrolysis of Stearoxytrimethylsilane” value ([1]; pH (initial) 9.1, 2 Days) of the same compound?
A: The value was 4%.

Q: What about the “% Hydrolysis of Stearoxytrimethylsilane” value ([1]; pH (initial) 9.1, 14 Days) of the same compound?
A: The value was 21%.

Q: What about the “% Hydrolysis of Stearoxytrimethylsilane” value ([1]; pH (initial) 9.1, 15 minutes (initial)) of the same compound?
A: Its value is 2%.

Q: For `CCCCCCCCCCCCCCCCCCO` [Stearyl alcohol], which solubility in alcohol ([2]; alcohol) is on record?
A: The solubility in alcohol was “soluble”.

Q: And the solubility in water ([2]; water)?
A: Its solubility in water is “insoluble”.
